From patent publication US20080125469A1, “Thiadiazole compounds and methods of use thereof” (Wyeth, priority 2006, published 2008)

target: T1, purified recombinant human Aggrecanase-2 (Agg2-Phe628) (Homo sapiens, UniProt Q9UNA0); test: Aggrecanase 2 continuous in vitro fluorescence assay; format: biochemical; conditions: Agg2-Phe628 0.5 μg/ml, substrate 25 μM, 30° C.; read-out: IC50
T1 construct: (Agg2-Phe628) (MW=41,737), which is a truncated form of full-length human aggrecanase-2; made in house; host or cells: CHO cells
T1 sequence (Q9UNA0 262-628 limits assumed): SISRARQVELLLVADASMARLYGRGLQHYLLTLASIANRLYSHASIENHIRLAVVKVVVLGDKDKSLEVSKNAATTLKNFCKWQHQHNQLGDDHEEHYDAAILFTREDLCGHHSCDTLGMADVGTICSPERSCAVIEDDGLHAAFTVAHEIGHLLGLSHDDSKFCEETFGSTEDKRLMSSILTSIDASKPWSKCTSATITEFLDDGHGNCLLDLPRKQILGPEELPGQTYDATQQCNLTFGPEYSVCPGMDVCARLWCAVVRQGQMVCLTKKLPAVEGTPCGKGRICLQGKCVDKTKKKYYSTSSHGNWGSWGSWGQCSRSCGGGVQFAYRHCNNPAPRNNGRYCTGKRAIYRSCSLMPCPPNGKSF
Procedure: A continuous vitro fluorescence assay was employed, wherein the enzyme used in the assay was a purified recombinant human Aggrecanase-2 (Agg2-Phe628) (MW=41,737), which is a truncated form of full-length human aggrecanase-2 that was expressed in CHO cells and purified prior to use. The final concentration of Agg2-Phe628 was 0.5 μg/ml. The buffer used in this assay was 50 mM HEPES, pH 7.5, 100 mM NaCl, 5 mM CaCl2, 0.1% CHAPS, 5% glycerol. The substrate used in the assay was a synthetic peptide having the sequence ABz-[sequence]-Dap(Dnp)-KK—NH2 (>95% pure by HPLC, AnaSpec, Inc.), wherein Abz refers to ortho-aminobenzyl, a fluorescent group which is quenched by energy transfer to a 2,4-dinitrophenyl group. The final concentration of substrate in the assay was 25 μM and was spectrophotometrically determined using the extinction coefficient at 354 nm of 18,172 M^−1cm^−1. The Vmax and Km for this enzyme/substrate reaction were determined to be insensitive to DMSO up to at least 10% (v/v).
The total reaction volume was 100 μl. The buffer and enzyme were added first followed by addition of 10× inhibitor from the dilution plate. Separate enzyme and buffer samples were included in order to obtain the maximal rate of substrate cleavage. The reaction was allowed to stand at 30° C. for 15 minutes, then substrate was added, the resultant solution was mixed. The resultant reaction was allowed to progress, with monitoring, for 40 minutes at 30° C. in kinetic mode using λex: 340 nm and λem: 420 (GeminiXS Molecular Devices).
The fluorescence intensity is linear during the time of data collection. The slope of the line (Vmax/sec) represents the initial reaction rate, ν. The maximal rate of cleavage of substrate was determined in the absence of inhibitor. The percent inhibition of activity in the presence of inhibitor was calculated using the following equation:
% inhibition=(1−ν(RFU/sec))/Maximal Rate(RFU/sec))*100
The IC50 was obtained by fitting the initial rate, ν or % inhibition at each concentration of inhibitor to the following equation:
This model describes a sigmoidal curve with an adjustable baseline, wherein:
y is the % inhibition or initial rate of reaction;
C is the concentration of inhibitor under test;
a is the limiting response as C approaches zero. As C increases without bound y tends toward its lower limit, d;
y is halfway between the lower and upper asymptotes when C=IC50; and
n is the Hill coefficient. The sign of n is positive when the response increases with increasing dose and is negative when the response decreases with increasing dose (inhibition).

Row | IC50 [nM] | Compound
1 | 775 | CCCc1ccc2c(c1)NC(=O)C21NN=C(c2ccc(OC)cc2)S1 (stereo not shown) [Compound 15, 5′-(4-methoxyphenyl)-6-propyl-3′H-spiro[indole-3,2′-[1,3,4]thiadiazol]-2(1H)-one]
2 | 7220 | O=C1Nc2ccc(OC(F)(F)F)cc2C12NN=C(c1ccccc1)S2 (stereo not shown) [Compound 31, 5′-phenyl-5-(trifluoromethoxy)-3′H-spiro[indole-3,2′-[1,3,4]thiadiazol]-2(1H)-one]
3 | 3680 | ethyl [5′-(4-methoxyphenyl)-2-oxo-3′H-spiro[indole-3,2′-[1,3,4]thiadiazol]-1(2H)-yl]acetate [Compound 9]
4 | 1040 | COc1ccc(C2=NNC3(S2)C(=O)Nc2c3ccc(Cl)c2C)cc1 (stereo not shown) [Compound 17, 6-chloro-5′-(4-methoxyphenyl)-7-methyl-3′H-spiro[indole-3,2′-[1,3,4]thiadiazol]-2(1H)-one]
5 | 4880 | C=CCN1C(=O)C2(NN=C(c3ccccc3)S2)c2ccccc21 (stereo not shown) [Compound 41, 1-allyl-5′-phenyl-3′H-spiro[indole-3,2′-[1,3,4]thiadiazol]-2(1H)-one]
6 | 2410 | COc1ccc(C2=NNC3(S2)C(=O)Nc2ccc(Br)cc23)cc1 (stereo not shown) [Compound 4, 5-bromo-5′-(4-methoxyphenyl)-3′H-spiro[indole-3,2′-[1,3,4]thiadiazol]-2(1H)-one]
7 | 2620 | O=C1N(c2ccccc2)c2ccccc2C12NN=C(c1ccccc1)S2 (stereo not shown) [Compound 38, 1,5′-diphenyl-3′H-spiro[indole-3,2′-[1,3,4]thiadiazol]-2(1H)-one]
8 | 5930 | CCc1ccc2c(c1)C1(NN=C(c3cccc(OC)c3)S1)C(=O)N2 (stereo not shown) [Compound 30, 5-ethyl-5′-(3-methoxyphenyl)-3′H-spiro[indole-3,2′-[1,3,4]thiadiazol]-2(1H)-one]
9 | 3050 | CC(C)N1C(=O)C2(NN=C(c3ccccc3)S2)c2ccccc21 (stereo not shown) [Compound 42, 1-isopropyl-5′-phenyl-3′H-spiro[indole-3,2′-[1,3,4]thiadiazol]-2(1H)-one]
10 | 1220 | Cc1ccc(C2=NNC3(S2)C(=O)N(c2ccccc2C)c2ccc(C)cc23)cc1 (stereo not shown) [Compound 32, 5-methyl-1-(2-methylphenyl)-5′-(4-methylphenyl)-3′H-spiro[indole-3,2′-[1,3,4]thiadiazol]-2(1H)-one]
11 | > 7000 | COc1ccc(C2=NNC3(S2)C(=O)N(C)c2ccccc23)cc1 (stereo not shown) [Compound 2, 5′-(4-methoxyphenyl)-1-methyl-3′H-spiro[indole-3,2′-[1,3,4]thiadiazol]-2(1H)-one]
12 | 1400 | CCCc1ccc2c(c1)NC(=O)C21NN=C(c2ccc(C)cc2)S1 (stereo not shown) [Compound 37, 5′-(4-methylphenyl)-6-propyl-3′H-spiro[indole-3,2′-[1,3,4]thiadiazol]-2(1H)-one]
13 | 13400 | COc1ccc(C2=NNC3(S2)C(=O)Nc2ccccc23)cc1 (stereo not shown) [Compound 3, 5′-(4-methoxyphenyl)-3′H-spiro[indole-3,2′-[1,3,4]thiadiazol]-2(1H)-one]
14 | 11100 | Cc1ccc2c(c1)C1(NN=C(c3ccccc3)S1)C(=O)N2 (stereo not shown) [Compound 55, 5-methyl-5′-phenyl-3′H-spiro[indoline-3,2′-[1,3,4]thiadiazol]-2-one]
15 | 13600 | O=C1Nc2ccc(Br)cc2C12NN=C(c1ccccc1)S2 (stereo not shown) [Compound 54, 5-bromo-5′-phenyl-3′H-spiro[indoline-3,2′-[1,3,4]thiadiazol]-2-one]
16 | 1480 | COc1ccc(C2=NNC3(S2)C(=O)N(c2ccc(Cl)cc2)c2ccc(C)cc23)cc1 (stereo not shown) [Compound 25, 1-(4-chlorophenyl)-5′-(4-methoxyphenyl)-5-methyl-3′H-spiro[indole-3,2′-[1,3,4]thiadiazol]-2(1H)-one]

Row | IC50 [nM] | Compound
17 | 1360 | CCc1ccc2c(c1)C1(NN=C(c3ccc(OC)cc3)S1)C(=O)N2 (stereo not shown) [Compound 29, 5-ethyl-5′-(4-methoxyphenyl)-3′H-spiro[indole-3,2′-[1,3,4]thiadiazol]-2(1H)-one]
18 | 1400 | COc1ccc(C2=NNC3(S2)C(=O)Nc2cc(C)ccc23)cc1 (stereo not shown) [Compound 19, 5′-(4-methoxyphenyl)-6-methyl-3′H-spiro[indole-3,2′-[1,3,4]thiadiazol]-2(1H)-one]
19 | 4430 | COc1ccc(C2=NNC3(S2)C(=O)Nc2ccc([N+](=O)[O-])cc23)cc1 (stereo not shown) [Compound 16, 5′-(4-methoxyphenyl)-5-nitro-3′H-spiro[indole-3,2′-[1,3,4]thiadiazol]-2(1H)-one]
20 | 30000 | O=C1Nc2ccccc2C12NN=C(c1ccccc1)S2 (stereo not shown) [Compound 53, 5′-phenyl-3′H-spiro[indoline-3,2′-[1,3,4]thiadiazol]-2-one]
21 | > 2500 | COc1ccc(C2=NNC3(S2)C(=O)Nc2ccc(OC)cc23)cc1 (stereo not shown) [Compound 6, 5-methoxy-5′-(4-methoxyphenyl)-3′H-spiro[indole-3,2′-[1,3,4]thiadiazol]-2(1H)-one]
22 | 14300 | O=C1Nc2cc(F)c(F)cc2C12NN=C(c1ccccc1)S2 (stereo not shown) [Compound 39, 5,6-difluoro-5′-phenyl-3′H-spiro[indole-3,2′-[1,3,4]thiadiazol]-2(1H)-one]
23 | 3060 | COc1ccc(C2=NNC3(S2)C(=O)Nc2c(C)cc(C)cc23)cc1 (stereo not shown) [Compound 1, 5′-(4-methoxyphenyl)-5,7-dimethyl-3′H-spiro[indole-3,2′-[1,3,4]thiadiazol]-2(1H)-one]
24 | 612 | Cc1ccc(C2=NNC3(S2)C(=O)N(Cc2ccccc2)c2ccc(C)cc23)cc1 (stereo not shown) [Compound 33, 1-benzyl-5-methyl-5′-(4-methylphenyl)-3′H-spiro[indole-3,2′-[1,3,4]thiadiazol]-2(1H)-one]
25 | 4670 | Cc1cc(C)c2c(c1)C1(NN=C(c3ccccc3)S1)C(=O)N2 (stereo not shown) [Compound 34, 5,7-dimethyl-5′-phenyl-3′H-spiro[indole-3,2′-[1,3,4]thiadiazol]-2(1H)-one]
26 | 2470 | C#CCN1C(=O)C2(NN=C(c3ccc(OC)cc3)S2)c2ccccc21 (stereo not shown) [Compound 7, 5′-(4-methoxyphenyl)-1-prop-2-yn-1-yl-3′H-spiro[indole-3,2′-[1,3,4]thiadiazol]-2(1H)-one]
27 | 12500 | CC(=O)N1C(=O)C2(NN=C(c3ccccc3)S2)c2ccccc21 (stereo not shown) [Compound 56, 1-acetyl-5′-phenyl-3′H-spiro[indoline-3,2′-[1,3,4]thiadiazol]-2-one]
28 | 1180 | 5′-(4-methoxyphenyl)-1-[3-(trifluoromethyl)phenyl]-3′H-spiro[indole-3,2′-[1,3,4]thiadiazol]-2(1H)-one [Compound 8]
29 | 899 | COc1ccc(C2=NNC3(S2)C(=O)N(c2ccccc2C)c2ccc(C)cc23)cc1 (stereo not shown) [Compound 23, 5′-(4-methoxyphenyl)-5-methyl-1-(2-methylphenyl)-3′H-spiro[indole-3,2′-[1,3,4]thiadiazol]-2(1H)-one]
30 | 24100 | CN1C(=O)C2(NN=C(c3ccccc3)S2)c2ccccc21 (stereo not shown) [Compound 52, 1-methyl-5′-phenyl-3′H-spiro[indoline-3,2′-[1,3,4]thiadiazol]-2-one]
31 | 1260 | COc1ccc(C2=NNC3(S2)C(=O)N(c2ccc(Cl)c(Cl)c2)c2ccc(C)cc23)cc1 (stereo not shown) [Compound 26, 1-(3,4-dichlorophenyl)-5′-(4-methoxyphenyl)-5-methyl-3′H-spiro[indole-3,2′-[1,3,4]thiadiazol]-2(1H)-one]

same assay, conditions: inhibitor concentration not given

Row | % Inhibition [%] | Compound
32 | 30 | 1-[2-(dimethylamino)ethyl]-5′-(4-methoxyphenyl)-3′H-spiro[indole-3,2′-[1,3,4]thiadiazol]-2(1H)-one [Compound 11]
33 | 39 | O=C1Nc2c(Cl)ccc(Cl)c2C12NN=C(c1ccccc1)S2 (stereo not shown) [Compound 40, 4,7-dichloro-5′-phenyl-3′H-spiro[indole-3,2′-[1,3,4]thiadiazol]-2(1H)-one]
34 | 3.7 | Cc1ccc(C2=NNC3(S2)C(=O)Nc2ccccc23)cc1 (stereo not shown) [Compound 50, 5′-(4-methylphenyl)-3′H-spiro[indole-3,2′-[1,3,4]thiadiazol]-2(1H)-one]
35 | 9.6 | CCc1ccc2c(c1)C1(NN=C(c3ccccc3)S1)C(=O)N2 (stereo not shown) [Compound 47, 5-ethyl-5′-phenyl-3′H-spiro[indole-3,2′-[1,3,4]thiadiazol]-2(1H)-one]
36 | 3 | Cc1ccc(C2=NNC3(S2)C(=O)Nc2ccc(C)cc23)cc1 (stereo not shown) [Compound 49, 5-methyl-5′-(4-methylphenyl)-3′H-spiro[indole-3,2′-[1,3,4]thiadiazol]-2(1H)-one]
37 | 4.6 | Cc1ccc(C2=NNC3(S2)C(=O)N(C)c2ccccc23)cc1 (stereo not shown) [Compound 51, 1-methyl-5′-(4-methylphenyl)-3′H-spiro[indole-3,2′-[1,3,4]thiadiazol]-2(1H)-one]
38 | 1.9 | CCc1ccc2c(c1)C1(NN=C(c3ccc(C)cc3)S1)C(=O)N2 (stereo not shown) [Compound 48, 5-ethyl-5′-(4-methylphenyl)-3′H-spiro[indole-3,2′-[1,3,4]thiadiazol]-2(1H)-one]
39 | 48 | 1-(4-chlorobenzoyl)-5′-(4-methoxyphenyl)-3′H-spiro[indole-3,2′-[1,3,4]thiadiazol]-2(1H)-one [Compound 36]

same assay, conditions: positive control at 10 nM

Row | inhibition at 0.01 µM [%] | Compound
40 | 40 | CNC(=O)[C@H](Cc1ccccc1)NC(=O)[C@H](CC(C)C)[C@H](CSc1cccs1)C(=O)NO [N2-{(2R)-2-[(1S)-1-Hydroxycarbamoyl-2-(thiophen-2-ylsulfanyl)-ethyl]-4-methyl-pentanoyl}-N-methyl-L-phenylalaninamide, reference compound]

same assay, conditions: positive control at 20 nM

Row | inhibition at 0.02 µM [%] | Compound
41 | 60 | CNC(=O)[C@H](Cc1ccccc1)NC(=O)[C@H](CC(C)C)[C@H](CSc1cccs1)C(=O)NO [N2-{(2R)-2-[(1S)-1-Hydroxycarbamoyl-2-(thiophen-2-ylsulfanyl)-ethyl]-4-methyl-pentanoyl}-N-methyl-L-phenylalaninamide, reference compound]

same assay, conditions: positive control at 200 nM

Row | inhibition at 0.2 µM [%] | Compound
42 | 100 | CNC(=O)[C@H](Cc1ccccc1)NC(=O)[C@H](CC(C)C)[C@H](CSc1cccs1)C(=O)NO [N2-{(2R)-2-[(1S)-1-Hydroxycarbamoyl-2-(thiophen-2-ylsulfanyl)-ethyl]-4-methyl-pentanoyl}-N-methyl-L-phenylalaninamide, reference compound]

same assay, conditions: positive control; read-out: Agg2 IC50

Row | IC50 [nM] | Compound
43 | 36 | CNC(=O)[C@H](Cc1ccccc1)NC(=O)[C@H](CC(C)C)[C@H](CSc1cccs1)C(=O)NO [N2-{(2R)-2-[(1S)-1-Hydroxycarbamoyl-2-(thiophen-2-ylsulfanyl)-ethyl]-4-methyl-pentanoyl}-N-methyl-L-phenylalaninamide, reference compound]
